Columns and labels:
[1] = biological target: T1, 5-hydroxytryptamine transporter (5-HTT or SERT) (Homo sapiens, UniProt P31645); experiment: Inhibition of human transporter in stable epithelial cell lines (5-HTT); assay type: cell-based; settings: average of two replicates (n=2)
T1 construct: expressed in transfected cells
Method: Compounds were tested for their ability to inhibit the reuptake of the monoamine neurotransmitters dopamine (DA), noradrenaline (NA), and serotonin (5-HT) in synaptosomes as described in WO 97/16451 (NeuroSearch A/S). In addition, the compounds were tested in human epithelial cells expressing human transporters for 5-HT (SERT), dopamine (DAT), and norepinephrine (NET).
The results are the average of two-replicates per experiment (n=2).

CCI rats = experiment: Rat chronic constriction injury (CCI) model of neuropathic pain; assay type: in vivo, Sprague-Dawley rats; settings: for paw withdrawal duration (pin prick) / weight bearing difference / paw withdrawal threshold (von Frey stimulation): 60 min prior; for paw withdrawal duration (pin prick): vehicle about 14.9 s; for weight bearing difference: vehicle about 51 %; for paw withdrawal threshold (von Frey stimulation): vehicle around 1.1 g
Method: All treatments were administered s.c. in a dosing volume of 2 ml/kg 60 min prior to behavioural assessment.
Adult male Sprague-Dawley rats (Harlan Scandinavia, Alleroed, Denmark) were used. They were housed in Macrolon III cages (20 x 14 x 18 cm or 20 x 40 x18 cm; in groups of 2-5 per cage according to weight) containing wood-chip bedding material (3 x 1 x 4 mm). The environment was temperature (20 ± 2°C) and humidity (55 ± 15%) controlled and consisted of a light-dark cycle of 13:11 h (lights on at 06.00 h and off at 19.00 h). Food (Altromin®) and water were available ad libitum. The rats were allowed to habituate to the housing facilities for at least one week prior to being randomly assigned to behavioural experiments. All experiments were performed according to the Ethical Guidelines of the International Association for the Study of Pain (Zimmermann, 1983) and the Danish Committee for Experiments on Animals.
All drug testing in CCI rats was performed blinded by the observer. A 2-3 day drug washout period was allowed, and the studies were conducted between 4-5 weeks after surgery. CCI rats used in this study had also been previously enrolled in similar experiments assessing the efficacy of other compound(s). Only those animals with distinct neuropathic behavior (von Frey response <4 g, pin prick response >10 s) were included in the study. Table C: Experimental groups
Chronic constriction injury procedure. A chronic constriction injury (CCI) was performed in rats (body weight 180-220 g at the time of surgery) under isoflurane anaesthesia as described previously (Bennett and Xie, 1988). The sciatic nerve was exposed at the mid-thigh level proximal to the sciatic trifurcation. Four chromic gut ligatures (4/0) (Ethicon, New Brunswick, NJ) were tied loosely around the nerve, 1-2 mm apart, such that the vascular supply was not compromised. The overlying muscle was closed in layers with 4/0 synthetic absorbable surgical suture. The skin was closed and sutured with 4/0 silk thread.
Behavioural testing of nerve-injured rats. Nerve-injured rats were routinely tested for the presence of pain-like behaviours for up to 5 weeks after surgery, according to previously described methods (Munro et al., 2008). For testing of mechanical hypersensitivity individual rats were removed from their home cage and allowed to habituate for 15 min in a 15 x 20 cm white Plexiglas testing cage, placed upon an elevated metal grid allowing access to the plantar surface of the injured hindpaw. The presence of mechanical allodynia was assessed using a series of calibrated von Frey hairs (lower limit=0.065 and upper limit=19.3 g, Stoelting Co, Wood Dale IL), which were applied to the plantar surface of the hindpaw with increasing force until an individual filament used just started to bend. The filament was applied for a period of 1-2 s and was repeated 5 times at 1-2 s intervals. The filament that induced a reflex paw withdrawal in 3 out of 5 applications was considered to represent the threshold level for a response to occur. The presence of mechanical hyperalgesia was determined by pressing the plantar surface of the hindpaw with the point of a safety pin, at an intensity sufficient to produce a reflex withdrawal response in normal unoperated animals, but at an intensity which was insufficient to penetrate the skin. A cut-off time of 15 s was applied to long withdrawals often seen for the nerve-injured paw.
Changes in hindpaw weight bearing were assessed using an incapacitance tester (Linton Instrumentation, U.K.), which incorporates a dual channel scale used to separately assess the weight distributed to each hindpaw of the rat. Normally, uninjured rats distribute their weight evenly between the two hindpaws (50:50). However, after tissue injury the rat preferentially favours the non-injured hindpaw, such that the weight bearing difference can be used as an index of spontaneous nociception. […]

T1 sequence (P31645 whole entry): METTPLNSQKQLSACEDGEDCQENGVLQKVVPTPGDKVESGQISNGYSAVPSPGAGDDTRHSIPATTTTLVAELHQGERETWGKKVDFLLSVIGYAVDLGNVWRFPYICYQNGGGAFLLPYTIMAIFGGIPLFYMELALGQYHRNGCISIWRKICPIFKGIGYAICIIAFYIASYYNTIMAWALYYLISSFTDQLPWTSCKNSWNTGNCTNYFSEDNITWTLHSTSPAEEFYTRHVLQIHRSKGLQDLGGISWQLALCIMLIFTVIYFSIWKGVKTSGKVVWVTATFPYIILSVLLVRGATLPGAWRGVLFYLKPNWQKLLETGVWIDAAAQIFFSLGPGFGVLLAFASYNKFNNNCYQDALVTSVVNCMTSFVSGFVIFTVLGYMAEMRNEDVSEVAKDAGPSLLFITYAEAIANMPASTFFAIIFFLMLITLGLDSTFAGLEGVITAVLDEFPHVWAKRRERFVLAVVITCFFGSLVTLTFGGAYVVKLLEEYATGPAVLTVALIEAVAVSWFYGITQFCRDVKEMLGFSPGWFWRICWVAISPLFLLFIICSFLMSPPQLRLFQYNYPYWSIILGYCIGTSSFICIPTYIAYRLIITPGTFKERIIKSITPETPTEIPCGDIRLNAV

COc1cc2ccc(O[C@@H]3C[C@H]4CC[C@@H](C3)N4)cc2oc1=O [IP2015, exo-7-[(8-azabicyclo[3.2.1]octan-3-yl)oxy]-3-methoxy-chromen-2-one]
IC50 [1]: 0.297 nM
paw withdrawal duration (pin prick) (CCI rats; 3 mg/kg s.c.): about 12.3 s
weight bearing difference (CCI rats; 3 mg/kg s.c.): about 17%
paw withdrawal threshold (von Frey stimulation) (CCI rats; 3 mg/kg s.c.): about 5.7 g
paw withdrawal duration (pin prick) (CCI rats; 10 mg/kg s.c.): about 11.1 s
weight bearing difference (CCI rats; 10 mg/kg s.c.): about 11%
paw withdrawal threshold (von Frey stimulation) (CCI rats; 10 mg/kg s.c.): about 3.6 g
CCI induced weight bearing deficits (overall effect) (CCI rats; 3, 10 mg/kg s.c., CCI rats): robust dose-dependent reversal
hindpaw withdrawal threshold to mechanical von Frey stimulation (overall effect) (CCI rats; 3, 10 mg/kg s.c., CCI rats): small but significant increase
behavioural observation in CCI rats (CCI rats; 10 and especially 30 mg/kg s.c.): extremely alert, and possibly displayed signs of anxiogenic behaviour
